We go through five compounds from publication PMC9848270, “Synthesis and biological assessment of indole derivatives containing penta-heterocycles scaffold as novel anticancer agents towards A549 and K562 cells” (Journal of Enzyme Inhibition and Medicinal Chemistry, 2023).

The test system of data set [1] is human non-small cell lung cancer cells (A549). Briefly: MTT antiproliferative assay, A549. The following applies: for inhibition at 10 µM: A549, 10 μM, read-out: Inhibition rate, A549; for IC50: A549, 48 h, MTT assay, 48 h, read-out: In vitro cytotoxicity IC50, A549. It counts as cell-based. On the procedure:
(§1) A549, PC-3, HepG2 and K562 cells were purchased from the Kunming cell bank of the Chinese academy of sciences. All cell lines were cultured in DMEM or RPMI 1640 complete medium. Logarithmic growth cells were cultured in 96-well plates at a concentration of 10^4 cells per well and pre-cultured for 24 h before adding test compounds. The MTT test with 5-Fluorouracil and Gefitinib as reference compounds were used to evaluate antiproliferative activity of target compounds in four human cancer line cells. For the estimation of the inhibition concentration (IC50), the Graph Pad Prism (GraphPad Software, San Diego, CA) was used.
Background: Tetrazolium dyes change colour on reduction, which living cells bring about.

Data set [2] relates to human prostate cancer cells (PC-3). Briefly: MTT antiproliferative assay, PC-3. It counts as cell-based. The following applies: Homo sapiens; for IC50: 48 h, MTT assay, read-out: In vitro cytotoxicity IC50, PC-3; for inhibition at 10 µM: read-out: Inhibition rate, PC-3. As for the experimental part: as §1
Data set [3] relates to human liver cancer cells (HepG2). Briefly: MTT antiproliferative assay, HepG2. The format is cell-based. The following applies: for inhibition at 10 µM: read-out: Inhibition rate, HepG2; for IC50: MTT assay, 48 h, read-out: In vitro cytotoxicity IC50, HepG2. On the procedure:
as §1

For data set [4], the system named is human chronic myeloid leukaemia cells (K562). Description: MTT antiproliferative assay, K562. As to conditions: for inhibition at 10 µM: K562, 10 μM, read-out: Inhibition rate, K562; for IC50: K562, 48 h, MTT assay, 48 h, read-out: In vitro cytotoxicity IC50, K562. It counts as cell-based. As for the experimental part: as §1
Data set [5] can be described thus: MTT cytotoxicity, normal cell line HEK293. The following applies: human, HEK293 cells (normal cell line); MTT assay, 48 h; normal cell line; CC50; read-out: In vitro cytotoxicity IC50, HEK293. The format is cell-based, human.
In data set [6] the test system is normal cell line (HEK293). Description: MTT cytotoxicity, normal cell line HEK293. It counts as cell-based, human. As to conditions: Homo sapiens, HEK293; 10 μM; read-out: Inhibition rate, HEK293.

Structures are written as SMILES.

In the case of `O=C(CSc1nnc(-c2ccccn2)s1)Nc1cc(-c2c[nH]c3ccccc23)n[nH]1` [Compound 10i, N-(3-(1H-indol-3-yl)-1H-pyrazol-5-yl)-2-((5-(pyridine-2-yl)-1,3,4-thiadiazol-2-yl)thio)acetamide], the melting point – broadly, the temperature, or range, at which the solid turns liquid – fell in the range of 226 to 228 °C. Also, in data set [1], the inhibition (in general, the drop in the measured response relative to a control, in per cent) at 10 µM stood at 35.7 ± 2.75% and the half-inhibitory concentration (IC50) – broadly, the point on the concentration scale where inhibition reaches its midpoint – is 12 ± 1.46 µM. Moreover, in data set [2], the concentration for half-maximal inhibition (IC50) was found to be 24.1 ± 5.07 µM and the inhibition at 10 µM amounted to 30.5 ± 9.1%. Moreover, in data set [3], the inhibition at 10 µM is 51.9 ± 5.57% and the IC50 worked out at 8.37 ± 2.29 µM. For the same compound, in data set [4], the inhibition at 10 µM was 40.5 ± 6.54% and the IC50 came to 12.5 ± 2.46 µM. The concentration for half-maximal inhibition (IC50) at 48 h in data set [5] was 26.3 ± 1.63 µM. In addition, the inhibition at 10 µM in data set [6] stood at 46.5 ± 7.5%.

With `Nn1c(SCC(=O)Nc2cc(-c3c[nH]c4ccccc34)n[nH]2)nnc1-c1c[nH]c2ccccc12` [Compound 11n, N-(3-(1H-indol-3-yl)-1H-pyrazol-5-yl)-2-((4-amino-5-(1H-indol-3-yl)-4H-1,2,4-triazol-3-yl)thio)acetamide], the melting point is 230 to 232 °C. Also, in data set [1], the inhibition at 10 µM came out at 31 ± 0.996% and the 50% inhibitory concentration (IC50) turned out to be 31.3 ± 3.29 µM. In addition, in data set [2], the concentration for half-maximal inhibition (IC50) was 10.4 ± 0.46 µM and the inhibition at 10 µM is 56.6 ± 12.9%. In data set [3], the inhibition at 10 µM is 80.5 ± 3.62% and the IC50 is 2.76 ± 1.74 µM. In data set [4], the inhibition at 10 µM is 97.1 ± 0.377% and the 50% inhibitory concentration (IC50) was 4.38 ± 0.45 µM. Besides, in data set [5], the 50% inhibitory concentration (IC50) at 48 h is 5.02 ± 1.29 µM. For the same compound, the inhibition at 10 µM in data set [6] was 44.7 ± 4.73%.

In the case of `Nc1ccc(-c2nnc(SCC(=O)Nc3cc(-c4c[nH]c5ccccc45)n[nH]3)n2N)cc1` [Compound 11l, N-(3-(1H-indol-3-yl)-1H-pyrazol-5-yl)-2-((4-amino-5–(4-aminophenyl)-4H-1,2,4-triazol-3-yl)thio)acetamide], the melting point was 213 to 215 °C. In data set [1], the inhibition at 10 µM is 96.7 ± 0.847% and the concentration for half-maximal inhibition (IC50) was 1.73 ± 0.3 µM. In data set [2], the IC50 turned out to be 2.88 ± 0.1 µM and the inhibition at 10 µM was 71.9 ± 4.55%. Besides, in data set [3], the inhibition at 10 µM worked out at 93.5 ± 1.56% and the IC50 turned out to be 1.37 ± 0.57 µM. Moreover, in data set [4], the inhibition at 10 µM amounted to 99 ± 0.2% and the concentration for half-maximal inhibition (IC50) worked out at 0.363 ± 0.1 µM. Also, the IC50 at 48 h in data set [5] stood at 1.38 ± 1.17 µM. In addition, the inhibition at 10 µM in data set [6] was found to be 79.6 ± 2.23%.

For the compound `Nn1c(SCC(=O)Nc2cc(-c3c[nH]c4ccccc34)n[nH]2)nnc1-c1ccc(Cl)cc1` [Compound 11f, N-(3-(1H-indol-3-yl)-1H-pyrazol-5-yl)-2-((4-amino-5–(4-chlorophenyl)-4H-1,2,4-triazol-3-yl)thio)acetamide], the melting point was in the range of 214 to 215 °C. In data set [1], the inhibition at 10 µM came out at 32.8 ± 4.22% and the IC50 stood at 11.8 ± 3 µM. For the same compound, in data set [2], the IC50 turned out to be 19.1 ± 8.43 µM and the inhibition at 10 µM stood at 28.9 ± 3.01%. Further, in data set [3], the inhibition at 10 µM is 46.9 ± 6.62% and the IC50 was 9.04 ± 0.93 µM. Further, in data set [4], the inhibition at 10 µM is 25 ± 3.24% and the concentration for half-maximal inhibition (IC50) worked out at 32.3 ± 4.05 µM. The IC50 at 48 h in data set [5] was found to be 18.1 ± 3.14 µM. Besides, the inhibition at 10 µM in data set [6] amounted to 40.1 ± 2.19%.

The compound `Nn1c(SCC(=O)Nc2cc(-c3c[nH]c4ccccc34)n[nH]2)nnc1-c1ccc(F)cc1` [Compound 11p, N-(3-(1H-indol-3-yl)-1H-pyrazol-5-yl)-2-((4-amino-5–(4-fluorophenyl)-4H-1,2,4-triazol-3-yl)thio)acetamide] showed a melting point of 209 to 212 °C. For the same compound, in data set [1], the inhibition at 10 µM is 23.9 ± 3.03% and the IC50 stood at 93.9 ± 7.47 µM. Also, in data set [2], the IC50 turned out to be 33.3 ± 5.94 µM and the inhibition at 10 µM came to 17.1 ± 1.22%. In data set [3], the inhibition at 10 µM was 22.8 ± 2.22% and the IC50 is 19.3 ± 6.15 µM. In data set [4], the inhibition at 10 µM came out at 11.7 ± 0.639% and the IC50 was 33.2 ± 4.95 µM. Further, in data set [5], the IC50 at 48 h is 28.9 ± 0.52 µM. Moreover, in data set [6], the inhibition at 10 µM turned out to be 5.33 ± 14.9%.
